For the assay, the system named is MDA-MB-231 breast cancer cells. Briefly: Quantitative scratch-wound. The assay is classed as cell-based. As to conditions: Homo sapiens.

SMILES strings stand for the structures. Where two headings read alike, the source gives them in different places.

On to `C[C@@H]1O[C@@H](O[C@H]2C[C@@H](O)[C@]3(CO)[C@H]4[C@H](O)C[C@]5(C)[C@@H](C6=CC(=O)OC6)CC[C@]5(O)[C@@H]4CC[C@]3(O)C2)[C@H](O)[C@H](O)[C@H]1O` [Compound 1, ouabain], for which the IC50 came to 0.173 µM (MDA-MB-231, read-out: Cell migration IC50) and 0.173 µM (MDA-MB-231, read-out: cell migration).

The record behind these values is PMC4340362 (ACS Chemical Biology, 2014).
